Assay results taken from paper PMC6368403, “Identification of a bilirubin receptor that may mediate a component of cholestatic itch” (eLife, 2019).

What was measured:
[1] = tested on: mice; assay: Cheek injection model: scratching bouts and wiping; assay type: in vivo, mouse
Description: All applicable behavioral tests were performed and analysed with the experimenter blind to genotype. […] There were no significant differences in itch between male and female mice. […] On the day before the experiment, animals were placed in the test chamber for 30 min before being subjected to a series of three mock injections with 5 min break periods in between. On the day of the experiment, animals were first allowed to acclimatize to the test chamber for 10 min before injection. […] A bout of scratching was defined as a continuous scratching movement with either hindpaw directed at the area of the injection site. In the cheek injection model, a wipe was defined as a single forepaw stroking the site of the injection. Use of both forepaws on the face or cheek was considered as grooming behavior. […] For H1R block, 30 mg/kg of cetirizine HCl (pH 7.4) was given intraperitoneally thirty minutes prior to injection of bilirubin. Licking behavior was quantified in seconds and identified as the licking of the toes or footpad of the hind paw site of injection that was neither preceded nor followed by licking of any other portion of the body.

[2] = tested on: murine peritoneal mast cells; assay: Ca2+ imaging of murine peritoneal mast cells; assay type: cell-based, mouse; conditions: 100 µM bilirubin
Description: (§1) All cultured cells were maintained in DMEM supplemented with 10% FBS and 1% Penicillin/Streptomycin at 37°C, 5% CO2. All data included were generated from cells tested for mycoplasma and found to be negative. Cells were imaged in calcium imaging buffer (CIB; 10 mM HEPES, 1.2 mM NaHCO3, 130 mM NaCl, 3 mM KCl, 2.5 mM CaCl2, 0.6 mM MgCl2, 20 mM glucose, and 20 mM sucrose at pH 7.4 and 290–300 mOsm). To monitor changes in intracellular [Ca^2+] ([Ca^2+]i), cells were loaded with either Fura 2-AM (HEK293 cells) or Fluo 4-AM (DRG neurons and mast cells) for 30 min in the dark at 37°C in CIB just prior to imaging. With Fura 2-AM, emission at 510 nm was monitored from excitation at both 340 nm and 380 nm. With Fluo 4-AM, emission at 520 nm was monitored from excitation at 488 nm. Cells were identified as responding if the intracellular [Ca^2+] rose by either 50% compared to baseline or 50% compared to the [Ca^2+]i change assayed during addition of 50 mM KCl (neurons only). Damaged, detached, high-baseline, and motion-activated cells were excluded from analysis.
Mast cells were purified as described and plated onto glass coverslips coated with […] fibronectin and allowed to recover for 2 hr at 37°C. Cells were then loaded with Fluo-4 AM.
Adult male mice 8–12 weeks of age were sacrificed through CO2 inhalation. […]

[3] = tested on: Mrgprs; assay: Ca2+ imaging screen of HEK293 cells transiently expressing other Mrgprs (MRGPRA3, MRGPRD, MRGPRX1, MRGPRX2 and others); assay type: cell-based; conditions: 50 µM bilirubin, 12 Mrgprs screened
Description: as §1, with “Damaged, detached, high-baseline, and motion-activated cells were excluded from analysis.” left out
In initial screens, HEK293 cells stably expressing the murine G-protein alpha-subunit Gα15, a unique Gα protein that non-selectively couples a large variety of GPCRs to phospholipase C ^30, were plated on poly-D-lysine-coated coverslips and transiently transfected with constructs encoding the MRGRPR of interest. […] Response was then monitored at 5 s intervals for an additional 60 s.

[4] = tested on: DRG sensory neurons; assay: In vivo DRG calcium imaging in Pirt-Cre; lsl-GCaMP6s animals; design: species or system mouse; conditions: 5 μL of 100 μM bilirubin into the paw of GCaMP6s mice
Description: Adult mice expressing Pirt-Cre and lox-stop-lox GCaMP6s were anesthetized by i.p. injection of chloral hydrate (20 μl/gram of 25 mg/ml solution). The back was shaved and disinfected with alcohol before application of ophthalmic ointment (Lacrilube; Allergen Pharmaceuticals). A dorsal laminectomy was performed below the lumbar enlargement (L5) targeting S1. During the procedure, care was taken to keep dura intact. A 2 cm incision was made at the lumbar enlargement. 0.1 mL of 1% lidocaine was injected into paravertebral muscles before dissection to expose L3–L5 vertebrae. Using rongeurs, the surface aspect of the L4 DRG transverse process was removed and the underlying DRG exposed. Mice were laid abdomen-down on a custom-designed microscope stage and the spinal column was secured at two sites using clamps. Images were acquired using a laser-scanning confocal microscope (Leica LSI microscope) equipped with a […] 0.5 NA macro dry objective and fast EM-CCD camera. Live images were acquired at 8 to 10 frames in frame-scan mode per 7–8 s, at depths of […] below the dura with the DRG in the focal plane. […]
Raw image stacks were collected, deconvoluted, and imported into ImageJ (NIH). […] Calcium signaling amplitudes were expressed as Ft /F0 as a function of time. […]

Structure (SMILES): C=CC1=C(C)/C(=C/c2[nH]c(Cc3[nH]c(/C=C4\NC(=O)C(C)=C4C=C)c(C)c3CCC(=O)O)c(CCC(=O)O)c2C)NC1=O [bilirubin, bilirubin IXα]
- Wiping ([1]; 6 µg bilirubin into the cheek, 10 min): neither wiping
- Scratching after cheek injection ([1]; cheek, 10 µl, 30 min): prompted dose-dependent scratching
- Calcium response of peritoneal mast cells [2]: did not elicit a calcium response
- Calcium response of other Mrgprs to bilirubin [3]: No other Mrgpr among the 12 that we screened responded
- Activation of DRG sensory neurons in vivo [4]: activated numerous DRG sensory neurons
